The text below walks through data of patent US20240116921A1, “LACTAM (HETERO)[…] DERIVATIVES AS INHIBITORS OF ERBB2” (EnLiven Therapeutics, Inc., priority 2020, published 2024).

pIC50: −log10 of the molar value.

One test deals with Ba/F3 ERBB2 wt (Homo sapiens, UniProt P04626). The test is described as follows: Cell viability assay, Ba/F3 ERBB2 wt. The test is classed as cell-based, mouse. The conditions noted are these: Ba/F3 ERBB2 wt cells, 72 hours, CellTiter Glo; read-out: IC50, cell viability, Ba/F3 ERBB2 wt. The method, then: (§1) Cells were treated with compounds, and cell viability was measured as a metric of kinase inhibition.
(§2) The Ba/F3 cell line is IL-3-dependent mouse cell line derived from the C3H mouse strain. Ba/F3 cell lines were engineered to express human ERBB2 or EGFR kinases, rendering the cells IL-3 independent. The lines were generated via retroviral transduction utilizing a Moloney murine leukemia virus (MMLV) promoter, and constructs are stably integrated into the cell genome. The sequences of the ERBB2 and EGFR genes used were NCBI Reference Sequences NM_004448.3 and NM_005228.3, respectively.
(§3) Similarly, Ba/F3 cell lines engineered to express EGFR, ERBB2, or ERBB2 mutants were grown, harvested, counted and seeded at 3000 cells per well in 96-well plates. A subset of wells contained media only (low control, “LC”).
(§4) Table B1 provides the growth media and number of cells seeded per well for the each cell line.
(§5) Plates were placed in a 37° C., 5% CO2 incubator for 72 hours. Plates were then removed from the incubator and equilibrated for 15 minutes at room temperature. 40 μl of CellTiter Glo reagent (Promega) was added to measure the relative level of metabolically active cells by quantifying intracellular ATP concentrations. Plates were incubated for 30 minutes at room temperature, and luminescence was measured. Percent viability was normalized to a vehicle control only using the following formula: % viability=100×(Lumsample−LumLC)/(LumHC−Lum^LC). Graphical curves were fitted using a nonlinear regression model with a sigmoidal dose response.
A general note: ATP-based viability assays read luminescence as a measure of living cells.

In test [1] the target is T1, phosphorylated ERBB2 (pERBB2) (Homo sapiens, UniProt P04626).
T1 construct: endogenous in cells; host or cells: BT-474
Briefly: Detection of phosphorylated ERBB2 (pERBB2) by ELISA in BT-474 cells. The test is classed as cell-based. As to conditions: four hours incubation. Put shortly:
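BT-474 cells (2.0×10^4/well) treated 4 h at 37 °C, 5% CO2 with compounds in four-fold dilutions from 10 µM to 0.01 nM. Lysate pERBB2 measured by ELISA with TMB read at 450 nm; % relative activity scaled between no-cell wells and 0.1% DMSO-treated cells.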
(An ELISA detects its analyte on a solid surface through an enzyme-linked reagent.)

For the next test, the target named is Ba/F3 ERBB2-L755S (Homo sapiens, UniProt P04626, L755S, cells depend on it). The test is described as follows: Cell viability assay, Ba/F3 ERBB2-L755S. As to conditions: 72 hours, CellTiter Glo, read-out: IC50, cell viability, Ba/F3 ERBB2-L755S. The test is classed as cell-based, mouse. As for the experimental part:
as §1, §2, §3, §4, §5

Test [2] concerns the target Ba/F3 ERBB2-P780_Y781insGSP (Homo sapiens, UniProt P04626, DUP778-780, cells depend on it). Briefly: Cell viability assay, Ba/F3 ERBB2-P780_Y781insGSP. The test is classed as cell-based, mouse. As to conditions: 72 hours, CellTiter Glo, read-out: IC50, cell viability, Ba/F3 ERBB2-P780_Y781insGSP. The method, then:
as §1, §2, §3, §4
Plates were placed in a 37° C., 5% CO2 incubator for 72 hours. Plates were then removed from the incubator and equilibrated for 15 minutes at room temperature. 40 μl of CellTiter Glo reagent (Promega) was added to measure the relative level of metabolically active cells by quantifying intracellular ATP concentrations. Plates were incubated for 30 minutes at room temperature, and luminescence was measured. […] Graphical curves were fitted using a nonlinear regression model with a sigmoidal dose response.

The test system of a further test is A431. Briefly: Cell viability assay (CellTiter Glo), A431. The test is classed as cell-based. The conditions noted are these: Homo sapiens, A-431, A431 cells, 72 hours.
The target of test [3] is Ba/F3 ERBB2-V777_G778insGC (Homo sapiens, UniProt P04626, INS778CG, cells depend on it). The test is described as follows: Cell viability assay, Ba/F3 ERBB2-V777_G778insGC. The conditions noted are these: 72 hours, CellTiter Glo, read-out: IC50, cell viability, Ba/F3 ERBB2-V777_G778insGC. The test is classed as cell-based, mouse. The method, then: as §1, §2, §3, §4, §5

Test [4] deals with Ba/F3 ERBB2 A775_G776insYVMA (Homo sapiens, UniProt P04626, DUP772-775, cells depend on it). The test is described as follows: Cell viability assay, Ba/F3 ERBB2 A775_G776insYVMA. The test is classed as cell-based, mouse. The conditions noted are these: Ba/F3 ERBB2 A775_G776insYVMA cells, 72 hours, CellTiter Glo; Tables B2-B4; read-out: IC50, cell viability, Ba/F3 ERBB2 A775_G776insYVMA. Put shortly:
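IL-3-independent Ba/F3 lines stably expressing the human ERBB2 insertion mutants were seeded at 3000 cells/well and exposed to compounds for 72 h at 37 °C, 5% CO2. Viability was read as ATP by CellTiter-Glo luminescence. Curves were fitted by sigmoidal nonlinear regression.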

The subject of the next test is MDA-MB-175VII. The test is described as follows: Cell viability assay (CellTiter Glo), MDA-MB-175VII. The test is classed as cell-based. The conditions noted are these: Homo sapiens; MDA MB 175VII cells, 72 hours, CellTiter Glo; read-out: IC50, cell viability, MDA MB 175VII. The method, then:
as §1, §2, §3, §4, §5

Test [5] concerns the target BaF3-EGFR-V769_D770insASV (Homo sapiens, UniProt P00533, DUP767-769, cells depend on it). Briefly: Cell viability assay, BaF3-EGFR-V769_D770insASV. The format is cell-based, mouse. As to conditions: 72 hours, CellTiter Glo, read-out: IC50, cell viability, BaF3-EGFR-V769_D770insASV. The method, then:
as §1, §2, §3, §4
(§6) Plates were placed in a 37° C., 5% CO2 incubator for 72 hours. Plates were then removed from the incubator and equilibrated for 15 minutes at room temperature. 40 μl of CellTiter Glo reagent (Promega) was added to measure the relative level of metabolically active cells by quantifying intracellular ATP concentrations. Plates were incubated for 30 minutes at room temperature, and luminescence was measured. […]

The target in test [6] is BaF3_EGFR-D770-N771insSVD (Homo sapiens, UniProt P00533, DUP768-770, cells depend on it). Briefly: Cell viability assay, BaF3_EGFR-D770-N771insSVD. The test is classed as cell-based, mouse. As to conditions: 72 hours, CellTiter Glo, read-out: IC50, cell viability, BaF3_EGFR-D770-N771insSVD. As for the experimental part:
as §1, §2, §3, §4, §6

Chain of Ba/F3 ERBB2-L755S (P04626 whole entry L755S): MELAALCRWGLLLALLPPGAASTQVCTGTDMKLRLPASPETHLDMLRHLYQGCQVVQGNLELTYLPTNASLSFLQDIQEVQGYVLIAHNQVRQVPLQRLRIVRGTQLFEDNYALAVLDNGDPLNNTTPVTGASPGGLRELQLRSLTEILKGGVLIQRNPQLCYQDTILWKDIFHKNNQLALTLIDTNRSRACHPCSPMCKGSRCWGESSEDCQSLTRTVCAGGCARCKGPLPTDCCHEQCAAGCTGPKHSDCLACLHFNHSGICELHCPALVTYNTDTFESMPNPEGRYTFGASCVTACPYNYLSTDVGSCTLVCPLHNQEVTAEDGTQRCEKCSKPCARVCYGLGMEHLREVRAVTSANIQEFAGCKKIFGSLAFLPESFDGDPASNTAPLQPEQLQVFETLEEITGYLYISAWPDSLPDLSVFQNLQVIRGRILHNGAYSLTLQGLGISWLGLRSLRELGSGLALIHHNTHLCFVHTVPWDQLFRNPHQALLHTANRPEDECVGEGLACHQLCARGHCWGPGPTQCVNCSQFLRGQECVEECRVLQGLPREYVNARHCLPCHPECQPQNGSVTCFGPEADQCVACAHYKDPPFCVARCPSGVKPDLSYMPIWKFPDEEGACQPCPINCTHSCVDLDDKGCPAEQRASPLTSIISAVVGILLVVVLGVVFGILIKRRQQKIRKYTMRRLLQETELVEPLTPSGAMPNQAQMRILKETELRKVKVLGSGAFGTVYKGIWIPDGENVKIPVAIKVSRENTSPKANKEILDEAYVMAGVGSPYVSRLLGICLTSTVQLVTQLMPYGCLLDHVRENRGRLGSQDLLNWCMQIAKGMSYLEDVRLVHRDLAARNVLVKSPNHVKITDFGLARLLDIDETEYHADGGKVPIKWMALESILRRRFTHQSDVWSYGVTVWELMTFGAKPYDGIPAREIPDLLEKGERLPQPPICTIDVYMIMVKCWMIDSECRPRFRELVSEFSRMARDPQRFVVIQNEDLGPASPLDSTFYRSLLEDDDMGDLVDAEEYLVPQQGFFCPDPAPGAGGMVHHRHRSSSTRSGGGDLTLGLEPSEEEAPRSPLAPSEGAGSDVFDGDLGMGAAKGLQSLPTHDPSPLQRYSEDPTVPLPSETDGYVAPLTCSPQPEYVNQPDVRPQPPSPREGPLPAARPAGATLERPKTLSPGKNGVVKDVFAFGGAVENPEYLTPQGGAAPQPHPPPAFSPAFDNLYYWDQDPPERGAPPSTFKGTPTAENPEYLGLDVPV
Chain of Ba/F3 ERBB2-P780_Y781insGSP (P04626 with tags, fused parts or gaps DUP778-780): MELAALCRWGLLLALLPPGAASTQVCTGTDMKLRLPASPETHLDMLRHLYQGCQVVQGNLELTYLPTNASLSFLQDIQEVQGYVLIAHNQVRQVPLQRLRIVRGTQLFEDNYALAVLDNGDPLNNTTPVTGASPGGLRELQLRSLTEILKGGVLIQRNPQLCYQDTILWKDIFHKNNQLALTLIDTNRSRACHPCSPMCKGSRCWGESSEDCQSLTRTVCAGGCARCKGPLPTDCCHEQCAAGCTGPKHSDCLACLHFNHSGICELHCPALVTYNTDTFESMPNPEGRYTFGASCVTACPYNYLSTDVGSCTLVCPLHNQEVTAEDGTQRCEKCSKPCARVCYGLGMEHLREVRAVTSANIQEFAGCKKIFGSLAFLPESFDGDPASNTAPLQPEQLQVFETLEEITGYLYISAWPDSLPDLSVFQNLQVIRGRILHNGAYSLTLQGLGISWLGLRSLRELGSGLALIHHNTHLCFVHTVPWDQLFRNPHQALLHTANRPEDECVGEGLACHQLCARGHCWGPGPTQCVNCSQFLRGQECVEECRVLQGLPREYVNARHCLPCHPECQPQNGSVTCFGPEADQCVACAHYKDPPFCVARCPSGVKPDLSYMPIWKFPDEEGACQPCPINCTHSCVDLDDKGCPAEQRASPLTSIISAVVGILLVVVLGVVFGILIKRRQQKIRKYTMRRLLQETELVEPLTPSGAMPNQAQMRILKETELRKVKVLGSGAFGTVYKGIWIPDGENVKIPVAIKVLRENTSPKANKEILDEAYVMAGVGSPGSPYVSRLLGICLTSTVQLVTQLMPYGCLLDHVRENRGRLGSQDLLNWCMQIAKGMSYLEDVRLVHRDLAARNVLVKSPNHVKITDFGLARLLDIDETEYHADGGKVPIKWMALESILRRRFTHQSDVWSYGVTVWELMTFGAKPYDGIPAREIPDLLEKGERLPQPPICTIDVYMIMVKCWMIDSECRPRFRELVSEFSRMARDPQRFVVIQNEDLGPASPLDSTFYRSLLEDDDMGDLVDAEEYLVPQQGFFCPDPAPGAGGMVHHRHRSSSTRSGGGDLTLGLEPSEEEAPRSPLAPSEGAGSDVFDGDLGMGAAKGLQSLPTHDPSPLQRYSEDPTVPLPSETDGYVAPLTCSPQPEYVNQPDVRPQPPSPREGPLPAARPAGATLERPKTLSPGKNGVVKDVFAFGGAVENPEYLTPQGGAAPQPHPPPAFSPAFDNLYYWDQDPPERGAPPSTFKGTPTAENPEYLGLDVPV
T1 sequence (P04626 23-1255): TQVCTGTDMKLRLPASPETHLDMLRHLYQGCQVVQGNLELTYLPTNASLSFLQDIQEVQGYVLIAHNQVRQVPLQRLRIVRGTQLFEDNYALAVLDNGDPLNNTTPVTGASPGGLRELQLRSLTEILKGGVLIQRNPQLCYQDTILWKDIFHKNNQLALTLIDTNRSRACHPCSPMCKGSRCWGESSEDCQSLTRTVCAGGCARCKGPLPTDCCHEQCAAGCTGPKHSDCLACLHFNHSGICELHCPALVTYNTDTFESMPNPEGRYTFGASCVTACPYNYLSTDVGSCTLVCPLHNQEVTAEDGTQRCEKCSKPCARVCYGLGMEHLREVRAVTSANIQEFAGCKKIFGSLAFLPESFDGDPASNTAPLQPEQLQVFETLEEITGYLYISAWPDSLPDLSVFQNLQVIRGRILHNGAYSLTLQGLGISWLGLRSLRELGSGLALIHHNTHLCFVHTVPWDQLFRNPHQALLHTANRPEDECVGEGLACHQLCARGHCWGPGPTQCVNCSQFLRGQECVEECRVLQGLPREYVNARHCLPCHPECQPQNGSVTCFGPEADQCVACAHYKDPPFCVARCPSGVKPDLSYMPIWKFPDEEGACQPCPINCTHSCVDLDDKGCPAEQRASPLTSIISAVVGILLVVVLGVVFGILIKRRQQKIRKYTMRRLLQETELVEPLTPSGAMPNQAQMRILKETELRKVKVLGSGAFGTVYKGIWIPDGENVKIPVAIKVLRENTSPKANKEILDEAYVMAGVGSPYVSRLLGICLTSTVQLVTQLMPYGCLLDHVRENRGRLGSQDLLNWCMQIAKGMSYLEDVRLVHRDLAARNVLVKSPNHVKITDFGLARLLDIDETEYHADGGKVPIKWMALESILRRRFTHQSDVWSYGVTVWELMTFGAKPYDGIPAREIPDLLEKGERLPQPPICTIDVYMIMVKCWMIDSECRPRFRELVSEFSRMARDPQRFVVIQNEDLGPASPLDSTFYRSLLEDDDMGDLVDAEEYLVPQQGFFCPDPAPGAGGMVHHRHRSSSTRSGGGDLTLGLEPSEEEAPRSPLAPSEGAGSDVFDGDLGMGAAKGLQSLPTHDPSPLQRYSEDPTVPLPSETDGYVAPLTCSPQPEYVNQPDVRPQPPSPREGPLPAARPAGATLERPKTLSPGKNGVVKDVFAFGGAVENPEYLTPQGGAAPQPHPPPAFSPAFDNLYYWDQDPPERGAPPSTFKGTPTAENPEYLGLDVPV
Chain of Ba/F3 ERBB2-V777_G778insGC (P04626 with tags, fused parts or gaps INS778CG): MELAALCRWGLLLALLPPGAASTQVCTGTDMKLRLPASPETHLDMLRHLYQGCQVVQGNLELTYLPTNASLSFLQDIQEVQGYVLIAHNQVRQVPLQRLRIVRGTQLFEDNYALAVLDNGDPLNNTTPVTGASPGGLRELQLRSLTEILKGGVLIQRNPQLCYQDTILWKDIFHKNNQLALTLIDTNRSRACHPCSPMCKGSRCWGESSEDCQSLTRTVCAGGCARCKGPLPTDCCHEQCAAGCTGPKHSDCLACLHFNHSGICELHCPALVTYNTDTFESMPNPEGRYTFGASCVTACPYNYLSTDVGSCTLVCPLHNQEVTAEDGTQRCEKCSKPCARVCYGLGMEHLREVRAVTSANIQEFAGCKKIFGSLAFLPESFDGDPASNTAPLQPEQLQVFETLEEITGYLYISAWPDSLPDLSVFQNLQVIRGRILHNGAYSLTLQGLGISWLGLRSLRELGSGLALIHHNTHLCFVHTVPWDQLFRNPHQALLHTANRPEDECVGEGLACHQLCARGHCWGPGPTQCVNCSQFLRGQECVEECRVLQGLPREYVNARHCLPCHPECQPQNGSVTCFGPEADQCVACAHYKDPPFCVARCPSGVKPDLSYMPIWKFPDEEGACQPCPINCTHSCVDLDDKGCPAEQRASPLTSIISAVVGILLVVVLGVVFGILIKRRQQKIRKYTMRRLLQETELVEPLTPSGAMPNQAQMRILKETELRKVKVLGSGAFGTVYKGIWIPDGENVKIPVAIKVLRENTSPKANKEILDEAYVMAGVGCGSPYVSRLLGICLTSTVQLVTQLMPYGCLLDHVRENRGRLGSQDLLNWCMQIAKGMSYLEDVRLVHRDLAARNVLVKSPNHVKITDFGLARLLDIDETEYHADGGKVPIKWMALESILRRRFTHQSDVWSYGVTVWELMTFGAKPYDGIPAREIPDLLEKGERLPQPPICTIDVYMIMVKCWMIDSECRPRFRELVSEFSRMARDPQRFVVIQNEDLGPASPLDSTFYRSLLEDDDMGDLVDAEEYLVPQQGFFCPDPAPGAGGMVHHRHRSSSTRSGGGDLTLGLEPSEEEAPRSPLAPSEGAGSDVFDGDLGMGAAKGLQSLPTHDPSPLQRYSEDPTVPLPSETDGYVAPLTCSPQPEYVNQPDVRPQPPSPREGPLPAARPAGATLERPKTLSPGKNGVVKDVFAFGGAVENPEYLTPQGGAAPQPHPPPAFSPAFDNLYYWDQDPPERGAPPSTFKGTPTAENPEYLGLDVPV

As a reminder, the pIC50 is −log10 of the IC50, conventionally taken in molar units. In the case of `C=C1CCN(c2ccc3ncnc(Nc4ccc(Oc5ccn6ccnc6c5)c(C)c4)c3c2)C1=O` [Compound 4, 1-[4-[(4-[imidazo[1,2-a]pyridin-7-yloxy]-3-methylphenyl)amino]quinazolin-6-yl]-3-methylidenepyrrolidin-2-one], the GI50 at Ba/F3 ERBB2 wt was 3.9 nM; on Ba/F3 ERBB2-L755S, 14 nM; in test [2] it was 2.6 nM; in test [3], 1.8 nM; in test [4], 16 nM. In addition, the pIC50 in test [1] is 8.29; with A431, 5.89.

`C=C1CCN(c2ccc3ncnc(Nc4ccc(Oc5ccn6ncnc6c5)c(C)c4)c3c2)C1=O` [Compound 1, 1-[4-[(3-methyl-4-[[1,2,4]triazolo[1,5-a]pyridin-7-yloxy]phenyl)amino]quinazolin-6-yl]-3-methylidenepyrrolidin-2-one]: the GI50 worked out at 2.3 nM at Ba/F3 ERBB2 wt; 13 nM on Ba/F3 ERBB2-L755S; 4510 nM in [5]; 4060 nM in [6]; 3.4 nM in test [2]; 0.82 nM in test [3]. For the same compound, in test [4], the GI50 amounted to 28 nM. In addition, the figures for the pIC50 (with MDA-MB-175VII; in test [1]; in the test with A431) were 7.82, 8.10 and 5.24, respectively.
